In the supplement of paper PMC10627819:

Tests used:
Experiment in all cases: Bliss interaction score (quartile over a dose matrix) (fitness difference); higher = more antagonism (negative = synergy)
B. subtilis 168 = tested on: B. subtilis 168
In short: (§1)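 Growth in each well was taken as OD595 at entry into stationary phase. Dividing by the plate's robust no-drug mean and capping at 1 gave fitness, and single-drug fitness was inferred from the combination data. The Bliss score, observed minus product-expected fitness, is summarised by quartiles over technical, biological and donor/recipient replicates.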

S. aureus DSM 20231 = tested on: S. aureus DSM 20231
In short: as §1

S. aureus Newman = tested on: S. aureus Newman
In short: as §1

S. pneumoniae D39V = tested on: S. pneumoniae D39V
In short: as §1
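Further: first quartile when negative (synergy) and third quartile when positive (antagonism).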

Row | Compound | Bliss interaction score (B. subtilis 168) | Bliss interaction score (S. aureus DSM 20231) | Bliss interaction score (S. aureus Newman) | Bliss interaction score (S. pneumoniae D39V) | Bliss interaction score (B. subtilis 168; main component drawn) | Bliss interaction score (S. aureus DSM 20231; main component drawn) | Bliss interaction score (S. aureus Newman; main component drawn) | Bliss interaction score (S. pneumoniae D39V; main component drawn)
1 | N#CC(C#N)=NNc1cccc(Cl)c1 [CCCP] + CCC[C@@H]1C[C@@H](C(=O)N[C@@H]([C@H]2O[C@H](SC)[C@H](O)[C@@H](O)[C@H]2O)[C@@H](C)O)N(C)C1 [Lincomycin] | -0.0311 | -0.0627 | 0.116 | 0.0513 | – | – | – | –
2 | CC(=O)Oc1ccccc1C(=O)O [Acetylsalicylicacid] + CC(C1CCC(C(O1)OC2C(CC(C(C2O)OC3C(C(C(CO3)(C)O)NC)O)N)N)N)NC [Gentamicin] | – | – | – | – | 0.286 | 0.165 | 0.0614 | 0.0535
3 | N#CC(C#N)=NNc1cccc(Cl)c1 [CCCP] + CN(C)c1cc(NC(=O)CNC(C)(C)C)c(O)c2c1C[C@H]1C[C@H]3[C@H](N(C)C)C(O)=C(C(N)=O)C(=O)[C@@]3(O)C(O)=C1C2=O [Tigecycline] | -0.0512 | 0.0272 | -0.0359 | 0.102 | – | – | – | –
4 | N#CC(C#N)=NNc1cccc(Cl)c1 [CCCP] + CC[C@H]1OC(=O)[C@H](C)C(=O)[C@H](C)[C@@H](O[C@@H]2O[C@H](C)C[C@H](N(C)C)[C@H]2O)[C@](C)(OC)C[C@@H](C)C(=O)[C@H](C)[C@H]2N(CCCCn3cnc(-c4cccnc4)c3)C(=O)O[C@]12C [Telithromycin] | -0.0441 | -0.0246 | -0.0206 | -0.0245 | – | – | – | –
5 | N#CC(C#N)=NNc1cccc(Cl)c1 [CCCP] + CC1(C)S[C@@H]2[C@H](NC(=O)Cc3ccccc3)C(=O)N2[C@H]1C(=O)O [PenicillinG] | 0.0568 | 0.0402 | -0.0514 | 0.0767 | – | – | – | –
6 | CO/N=C(\C(=O)N[C@@H]1C(=O)N2C(C(=O)O)=C(COC(N)=O)CS[C@H]12)c1ccco1 [Cefuroxime] + CC[C@H]1OC(=O)[C@H](C)[C@@H](O[C@H]2C[C@@](C)(OC)[C@@H](O)[C@H](C)O2)[C@H](C)[C@@H](O[C@@H]2O[C@H](C)C[C@H](N(C)C)[C@H]2O)[C@](C)(OC)C[C@@H](C)C(=O)[C@H](C)[C@@H](O)[C@]1(C)O [Clarithromycin] | -0.0354 | -0.249 | 0.0734 | 0.0629 | – | – | – | –
7 | N#CC(C#N)=NNc1cccc(Cl)c1 [CCCP] + CC[C@H]1OC(=O)[C@H](C)[C@@H](O[C@H]2C[C@@](C)(OC)[C@@H](O)[C@H](C)O2)[C@H](C)[C@@H](O[C@@H]2O[C@H](C)C[C@H](N(C)C)[C@H]2O)[C@](C)(O)C[C@@H](C)C(=O)[C@H](C)[C@@H](O)[C@]1(C)O [Erythromycin] | -0.0587 | 0.023 | 0.0472 | -0.0863 | – | – | – | –
8 | N#CC(C#N)=NNc1cccc(Cl)c1 [CCCP] + C[n+]1ccc(-c2cc[n+](C)cc2)cc1 [Paraquat] | 0.0508 | -0.0508 | -0.0253 | 0.0866 | – | – | – | –
9 | CO/N=C(\C(=O)N[C@@H]1C(=O)N2C(C(=O)O)=C(COC(N)=O)CS[C@H]12)c1ccco1 [Cefuroxime] + Oc1cc(Cl)ccc1Oc1ccc(Cl)cc1Cl [Triclosan] | 0.0538 | 0.0932 | -0.0309 | 0.0619 | – | – | – | –
10 | Cc1ncc([N+](=O)[O-])n1CCO [Metronidazole] + Clc1ccc(COC(Cn2ccnc2)c2ccc(Cl)cc2Cl)c(Cl)c1 [Miconazole] | 0.0471 | 0.0327 | 0.0522 | 0.0478 | – | – | – | –
11 | CC(=O)Oc1ccccc1C(=O)O [Acetylsalicylicacid] + CN(C)c1cc(NC(=O)CNC(C)(C)C)c(O)c2c1C[C@H]1C[C@H]3[C@H](N(C)C)C(O)=C(C(N)=O)C(=O)[C@@]3(O)C(O)=C1C2=O [Tigecycline] | -0.11 | -0.088 | -0.0593 | -0.0515 | – | – | – | –
12 | COc1ccc(C[C@H](N)C(=O)N[C@H]2[C@@H](O)[C@H](n3cnc4c(N(C)C)ncnc43)O[C@@H]2CO)cc1 [Puromycin] + Oc1cc(Cl)ccc1Oc1ccc(Cl)cc1Cl [Triclosan] | 0.0476 | 0.0973 | 0.0281 | 0.102 | – | – | – | –
13 | CC(=O)Oc1ccccc1C(=O)O [Acetylsalicylicacid] + CN[C@@H]1[C@H](O[C@H]2[C@H](O[C@H]3[C@H](O)[C@@H](O)[C@H](N=C(N)N)[C@@H](O)[C@@H]3N=C(N)N)O[C@@H](C)[C@]2(O)C=O)O[C@@H](CO)[C@H](O)[C@H]1O [Streptomycin] | 0.222 | -0.0889 | 0.0762 | -0.0479 | – | – | – | –
14 | C[C@H]1c2cccc(O)c2C(=O)C2=C(O)[C@]3(O)C(=O)C(C(N)=O)=C(O)[C@@H](N(C)C)[C@@H]3[C@@H](O)[C@@H]21 [Doxycycline] + CC[C@H]1OC(=O)[C@H](C)[C@@H](O[C@H]2C[C@@](C)(OC)[C@@H](O)[C@H](C)O2)[C@H](C)[C@@H](O[C@@H]2O[C@H](C)C[C@H](N(C)C)[C@H]2O)[C@](C)(O)C[C@@H](C)C(=O)[C@H](C)[C@@H](O)[C@]1(C)O [Erythromycin] | -0.162 | -0.0389 | -0.0251 | -0.161 | – | – | – | –
15 | N#CC(C#N)=NNc1cccc(Cl)c1 [CCCP] + CO[C@@H]1[C@@H](OC(N)=O)[C@@H](O)[C@H](Oc2ccc3c(O)c(NC(=O)c4ccc(O)c(CC=C(C)C)c4)c(=O)oc3c2C)OC1(C)C [Novobiocin] | -0.144 | 0.0738 | 0.0377 | 0.164 | – | – | – | –
16 | CO/N=C(\C(=O)N[C@@H]1C(=O)N2C(C(=O)O)=C(COC(C)=O)CS[C@H]12)c1csc(N)n1 [Cefotaxime] + CC[C@H]1OC(=O)[C@H](C)[C@@H](O[C@H]2C[C@@](C)(OC)[C@@H](O)[C@H](C)O2)[C@H](C)[C@@H](O[C@@H]2O[C@H](C)C[C@H](N(C)C)[C@H]2O)[C@](C)(OC)C[C@@H](C)C(=O)[C@H](C)[C@@H](O)[C@]1(C)O [Clarithromycin] | 0.0567 | 0.0514 | -0.0626 | 0.0611 | – | – | – | –
